According to patent US20140262319A1, “ENVIRONMENTALLY FRIENDLY PERMANENT QUATERNARIES OF POLYAMINES AND THEIR USE AS CLAY STABILIZERS AND METHODS FOR MAKING AND USING SAME” (CLEARWATER INTERNATIONAL, LLC, priority 2013, published 2014):

System: Fathead Minnow (pimephales promelas)
Assay: Acute toxicity survival test
Type: in vivo
Conditions: Flathead Minnows
Procedure: As a consequence, the “definitive” test gave a more precise LC50 value. LC50 was determined using a log-normal transformation coupled with linear regression between the bracketing no observed effect concentration (NOEC) and lowest observed effect concentration (LOEC). Both the range finding and definitive tests were run on Example 4 and Example 5. Only the ranging finding test was run for TMAC and Example 3.

OCC[N+](CCO)(CCO)Cc1ccccc1.[Cl-] [Example 4]
toxicity to minnows compared with TMAC: much less toxic than TMAC

CCOS(=O)(=O)[O-].CC[N+](CCO)(CCO)CCO [Example 5]
toxicity to minnows compared with TMAC: much less toxic than TMAC
